Results: patent US20230210108A1, “ANTIMICROBIAL COATING FOR POLYMERIC FOOD PACKAGING” (VACOPAK INDUSTRIES LTD., priority 2020, published 2023)

Key:
[1] = system: Gram-positive bacteria Listeria; assay: Antimicrobial activity of coatings on PET surfaces against Gram-positive bacteria (CFU count); assay type: cell-based; settings: agent 5 mg/ml embedded in chitosan or alginate matrix, coated on PET; FIG. 5B
Protocol: (§1) Air plasma was applied onto each surface for three (3) minutes prior to coating. The surfaces used in the Examples were polyethylene (PET) sheets. The coating composition was prepared by suspending polymer(s) in water together with the antimicrobial agent(s). The coating composition was then applied on the surface, forming a layer of about 25 µm, using BIUGED and BGD219 instruments in a speed of 6 mm/sec, as shown in FIG. 4. Each coating composition was prepared a few hours, or about 24 hours prior to being applied on the surface. The antimicrobial activity of several coatings was tested against Gram-negative bacteria E. Coli and Gram-positive bacteria Listeria (FIGS. 5A and 5B, respectively, n=3 per each test). Each test was repeated twice (suffix A and B; in FIGS. 5A to 5B).

[2] = system: Gram-negative bacteria E. Coli; assay: Antimicrobial activity of coatings on PET surfaces against Gram-negative bacteria (CFU count); assay type: cell-based; settings: agent 5 mg/ml embedded in chitosan or alginate matrix, coated on PET; FIG. 5A
Protocol: as §1

Compound	reduction of viral count, as measured in colony-forming units (CFU) [1]	reduction of bacterial count (CFU) [2]
O=C1O[C@H]([C@@H](O)CO)C(O)=C1O [ascorbic acid, Ascorbic acid]	at least one order of magnitude	at least one order of magnitude
CCCCCCCCCCCC(=O)N[C@@H](CCCN=C(N)N)C(=O)OCC [lauryl alginate, Lauryl alginate]	at least one order of magnitude	at least one order of magnitude
Nisin	high cytotoxicity	
